The source of these data is patent US8008288B2, “Anti-inflammatory A-aminocyclolactam compounds” (Cambridge Enterprise Limited, priority 2004, dated 2011).

Data set [1] concerns MCP-1 induced leukocyte migration (THP-1 cells). As to the kind of experiment: Inhibition of chemokine (MCP-1) induced leukocyte migration in vitro, transwell assay. The format is cell-based, human. The method, then: In principle, this assay consists of two chambers separated by a porous membrane. The chemoattractant is placed in the lower compartment and the cells are placed in the upper compartment. After incubation for a period at 37° C. the cells move towards the chemoattractant, and the number of cells in the lower compartment is proportional to the chemoattractant activity (relative to a series of controls).
This assay can be used with a range of different leukocyte populations. For example, freshly prepared human peripheral blood leukocytes may used. Alternatively, leukocyte subsets may be prepared, including polymorphonuclear cells or lymphocytes or monocytes using methods well known to those skilled in the art such as density gradient centrifugation or magnetic bead separations. Alternatively; immortal cell lines which have been extensively validated as models of human peripheral blood leukocytes may be used, including, but not limited to THP-1 cells as a model of monocytes or Jurkat cells as model of naïve T cells.
The THP-1 cell line (European Cell culture Collection) were used as the leukocyte cell population.
The following procedure is used for testing the invention compounds for MCP-1 induced leukocyte migration:
First, the cell suspension to be placed in the upper compartment is prepared. […]

Data set [2] is classed as in vitro ADME, human. The source says:
As an approach to identifying such stable analogs, various derivatives of (S)-3-(undec-10-enoyl)-aminoglutarimide have been tested for their stability in serum.

The conditions of data set [3]: cited from earlier work.

In the case of `O=C1NCCCC[C@@H]1NC(=O)C12CC3CC(CC(C3)C1)C2` [(S)-3-(adamantane-1-carbonylamino)azepin-2-one], the “potency in vitro as broad-spectrum chemokine inhibitor (BSCI)” value in data set [1] (in vitro) is listed as “sub-nanomolar”.

Take `C=CCCCCCCCCC(=O)[C@@H]1CCCNC1=O` [(S)-3-(undec-10-enoyl)-tetrahydropyridin-2-one]: the “potency compared with the parental molecule” value in data set [1] (parental molecule (S)-3-(undec-10-enoyl)-aminoglutarimide) is “considerably reduced potency”. Moreover, the “stability in human serum” value in data set [2] (human, 7 days) was “at least 7 days”.

As to `C=CCCCCCCCCC(=O)N[C@H]1CCC(=O)NC1=O` [NR58,4, (S)-3-(undec-10-enoyl)-aminoglutarimide], the “enzymatic ring opening of the aminoglutarimide ring in serum” value in data set [2] is recorded as “susceptible to enzymatic ring opening in serum”.

With “c(DCys-DGln-DIle-DTrp-DLys-DGln-DLys-DPro-DAsp-DLeu-DCys)-NH2 [NR58-3.14.3]”, the “half-life period of clearance from blood plasma” value in data set [3] (after intravenous injection) is listed as “less than 30 minutes”. Further, in data set [3] (in vivo, po), the oral bioavailability entry is reported as “not orally bioavailable”.
